Results from paper PMC5321639, “Design and pharmacodynamics of recombinant NZ2114 histidine mutants with improved activity against methicillin-resistant Staphylococcus aureus” (AMB Express, 2017).
Converted amounts (≈) assume the structure as drawn. “And” between values parts separate entries of the source, which are not always exact repeats. Identical values can stand only once. Like-named read-outs stand apart in the source and are kept apart here. Marks after values point to notes of the source that are not given here. Where a SMILES comes first, the peptide text is derived from it. Bridges are numbered along the chain shown (N, C = ends).

What was measured:
[1] = system: S. aureus ATCC43300; test: Postantibiotic effect (PAE); format: cell-based, Staphylococcus aureus; conditions: 2 h exposure at 37 °C, 1 × 10^8 CFU/ml, drug removed by 1:10^3 dilution, mean ± SD, n = 3
Experimental: After 2 h, the drug was removed by diluting 1:10^3 into the MHB and incubated at 37 °C, 250 rpm. The sample was taken to plate counting every 1 h until the bacterial cultures become turbid. The PAE was calculated by the following formula: PAE = T − C, where T is the time needed for the count of CFU in the test culture to increase 1 log10 (10-fold) above the 0 h and C is the time needed for the count of CFU in the untreated control culture to increase 1 log10 above the 0 h (Giguère et al. [2012]).

[2] = system: S. aureus ATCC43300; test: microbe, parasite or virus in culture; format: cell-based, Staphylococcus aureus; conditions: for MICc (MIC of the most effective combination): checkerboard; for FIC: MICc/MICa
Experimental: The MIC values of four antibiotics (vancomycin, ampicillin, rifampicin and ciprofloxacin) to S. aureus ATCC43300 were tested as the MIC assay described above. The peptide solutions and antibiotics were diluted twofold with the final concentrations ranging from 1/16 to 8× MIC, and added into 96-well plates in a checkerboard fashion (White et al. [1996]). The results of combination were evaluated by calculating the fractional inhibitory concentration index (FICI) of each combination. FIC of H1, H2, H3=MIC of H1, H2, H3, respectively, in combination with antibiotic/MIC of H1, H2, H3 alone; FIC of antibiotics=MIC of antibiotic in combination with peptide/MIC of antibiotic alone; FICI = FIC of H1, H2, H3+ antibiotic, respectively. The result of interaction between two antimicrobial drugs was determined according to: FICI ≤ 0.5 refers to synergy, 0.5 < FICI ≤ 1 refers to additivity, 1 < FICI ≤ 4 refers to indifference, and FICI > 4 is defined as antagonism (Tsuji and Rybak [2006]).

[3] = system: S. aureus ATCC43300; test: Effect of temperature on activity (MIC); format: cell-based, Staphylococcus aureus; conditions: then MIC assay
Experimental: (§1) The peptide solutions were diluted twofold with the range of final concentrations were 0.015–32 µg/ml (0.003–7.273 µM) for purified H1, H2, H3, H6, and H8. The test strains were grown in MHB medium at 37 °C to an OD600 of 0.4 and diluted to 1 × 10^5 CFU/ml. The 10 µl peptide and 90 µl cell suspension were added into each well. All assays were performed in triplicate. The antimicrobial activity of NZ2114 and vancomycin were tested as positive controls. The plates were incubated at 37 °C for 18–24 h. MIC was defined as the lowest peptide concentration of ones at which there was no visible growth (Tian et al. [2009]).
(§2) The effect of pH, temperature, NaCl concentration and proteinase on the activity of peptides was evaluated. Peptides were diluted twofold, then adjusted to a pH range from 2.0 to 10.0 and incubated at 37 °C for 4 h. The thermal stability of purified peptides was determined after 1-h incubation of peptides at 4, 20, 40, 60, 80 and 100 °C in deionized water, respectively. Aliquots of peptides were incubated in various proteinases solutions [pepsin (pH 2.0), trypsin (pH 8.0), proteinase K (pH 7.0)] at a ratio of 1:10, w/w (proteinase: peptide) at 37 °C for 3 h. For the ion stability, peptides were incubated in 50, 100, 200, 300, 400, 500 mM sodium chloride solutions, respectively. Other methods and conditions were prepared as the MIC assay described above (Li et al. [2015]; Qu et al. [2016]).

[4] = system: S. aureus ATCC43300; test: Effect of NaCl concentration on activity (MIC); format: cell-based, Staphylococcus aureus
Experimental: as §1, §2

[5] = system: S. aureus ATCC43300; test: Effect of proteinases on activity (MIC); format: cell-based, Staphylococcus aureus; conditions: 1:10 w/w proteinase:peptide, 37 °C for 3 h, then MIC assay
Experimental: as §1, §2

[6] = system: S. aureus ATCC43300; test: Effect of pH on activity (MIC); format: cell-based, Staphylococcus aureus; conditions: then MIC assay
Experimental: as §1, §2

[7] = system: S. aureus ATCC43300 (MRSA); test: Time-kill curve assay; format: cell-based, Staphylococcus aureus; conditions: 1× MIC
Experimental: Bacterial culture (S. aureus ATCC43300) was diluted to 1 × 10^5 CFU/ml and H1, H2, and H3 were added. […] The mixture was cultivated at 250 rpm, 37 °C. The 100-µl samples were taken from each flask at 0, 2, 4, 6, 8, 12 and 24 h of incubation, and serial dilutions of samples were plated to count visible colonies. Vancomycin was tested in the same way as a positive control and the culture without antimicrobial agent as a negative control (Xiong et al. [2011]). All experiments were performed in triplicate.

[8] = system: mice red blood cells; test: Hemolytic assay; format: cell-based; conditions: 0.23 to 7.27 μM (1–32 μg/ml), 37 °C 1 h
Experimental: The mice blood cells were washed three times in stroke-physiological saline solution (0.9% NaCl) and centrifuged at 4 °C, 2000 rpm for 5 min. A 50-μl cell was diluted to 8% (v/v), added into 96-well plates, and mixed with 50-μl peptide to the final concentrations ranging from […]. The plates were incubated at 37 °C for 1 h, and centrifuged at 4 °C, 5000 rpm for 5 min. The absorbance of supernatants was measured at 540 nm, and 0 and 100% hemolysis was measured by 0.9% NaCl and 0.1% Triton X-100, respectively. The hemolysis percentages were calculated by the following equation: [(Abs540 nm in H1, H2, H3 solution − Abs540 nm in 0.9% NaCl)/(Abs540 nm in 0.1% Triton X-100 − Abs540 nm in 0.9% NaCl)] ×100% (Jiao et al. [2015]).

[9] = system: rabbit and human RBCs; conditions: ref Yang et al. [2011], Zhang et al. [2014]; cited from earlier work
Source text: Although the values were higher than NZ2114 due to the high charge and hydrophilicity, they were still very low in the range of MICs. […] Owing to contribution from the three pairs of disulfide bond into th ...

[10] = system: S. suis CVCC3928; conditions: data from previous results; ref Jiao et al. [2015]; cited from earlier work
Source text: (§3) Table 2 MIC assays of H1, H2, H3, H6, H8, NZ2114, and vancomycin against G^+ and G^− pathogens | column: MIC (μM) / Van

[11] = system: S. suis CVCC3309; conditions: data from previous results; ref Jiao et al. [2015]; cited from earlier work
Source text: as §3

[12] = system: S. suis CVCC606; conditions: data from previous results; ref Jiao et al. [2015]; cited from earlier work
Source text: as §3

[13] = system: S. aureus ATCC6538; test: MIC assay; format: cell-based, Staphylococcus aureus; conditions: Staphylococcus aureus, ATCC6538; MHB, 1 × 10^5 CFU/ml, 37 °C, 18–24 h, no visible growth, triplicate
Experimental: as §1

[14] = system: S. aureus ATCC25923; test: MIC assay; format: cell-based, Staphylococcus aureus; conditions: Staphylococcus aureus, ATCC25923; MHB, 1 × 10^5 CFU/ml, 37 °C, 18–24 h, no visible growth, triplicate
Experimental: as §1

[15] = system: S. aureus ATCC43300 (MRSA); test: MIC assay; format: cell-based; conditions: Staphylococcus aureus; MHB, 1 × 10^5 CFU/ml, 37 °C, 18–24 h, no visible growth, triplicate
Experimental: as §1

## CC[C@H](C)[C@@H]1NC(=O)[C@H](CO)NC(=O)[C@H](CCCCN)NC(=O)[C@@H]2CSSC[C@@H](C(=O)N[C@@H](Cc3ccc(O)cc3)C(=O)O)NC(=O)[C@H](CCCCN)NC(=O)[C@@H]3CSSC[C@H](NC(=O)[C@H](CCCNC(=N)N)NC(=O)[C@H](CC(C)C)NC(=O)[C@H](CC(=O)O)NC(=O)[C@H](CC(=O)O)NC(=O)[C@H](CCC(=O)O)NC(=O)[C@H](CC(N)=O)NC(=O)[C@H](Cc4c[nH]c5ccccc45)NC(=O)[C@@H]4CCCN4C(=O)CNC(=O)[C@H](CC(N)=O)NC(=O)[C@@H](NC(=O)CNC(=O)[C@H](Cc4ccccc4)NC(=O)CN)CSSC[C@H](NC(=O)[C@H](Cc4ccc(O)cc4)NC(=O)CNC(=O)CNC(=O)[C@H](CCCCN)NC(=O)[C@H](Cc4ccc(O)cc4)NC(=O)CNC(=O)[C@H](CCCCN)NC1=O)C(=O)N[C@@H](C)C(=O)N[C@@H](CCCCN)C(=O)NCC(=O)NCC(=O)N[C@@H](Cc1ccccc1)C(=O)N[C@@H](C(C)C)C(=O)N3)C(=O)N[C@@H](Cc1c[nH]cn1)C(=O)N[C@@H](CC(N)=O)C(=O)N[C@@H](CCCCN)C(=O)N2 [H3] (H-GFGCNGPWNEDDLRCHNKCKSIKGYKGGYCAKGGFVCKCY-OH; disulfide 4-30, 15-37, 19-39 (inferred); N-terminus and C-terminus assumed)
[1]; 1× MIC
  PAE: 0.55 h and 0.55 ± 0.13 h
[1]; 2× MIC
  PAE: 1.55 ± 0.07 h
[2]; in combination with ampicillin
  MICc (MIC of the most effective combination): 0.056 µM
[2]; in combination with ciprofloxacin
  MICc (MIC of the most effective combination): 0.056 µM
[2]; in combination with rifampicin
  MICc (MIC of the most effective combination): 0.056 µM
[2]; in combination with vancomycin
  MICc (MIC of the most effective combination): 0.028 µM
[2]; drug alone, read-out: MICa (MIC of drug alone)
  MIC: 0.056 µM
[3]; 1 h at 4 °C in deionized water
  MIC after incubation at 4 °C: 0.057 µM (≈ 0.251 µg/mL)
[3]; 1 h at 20 °C in deionized water
  MIC after incubation at 20 °C: 0.057 µM (≈ 0.251 µg/mL)
[3]; 1 h at 40 °C in deionized water
  MIC after incubation at 40 °C: 0.057 µM (≈ 0.251 µg/mL)
[3]; 1 h at 60 °C in deionized water
  MIC after incubation at 60 °C: 0.057 µM (≈ 0.251 µg/mL)
[3]; 1 h at 80 °C in deionized water
  MIC after incubation at 80 °C: 0.057 µM (≈ 0.251 µg/mL)
[3]; 1 h at 100 °C in deionized water
  MIC after incubation at 100 °C: 0.114 µM (≈ 0.502 µg/mL)
[4]; incubated in 50 mM sodium chloride solution
  MIC in 50 mM NaCl: 0.057 µM (≈ 0.251 µg/mL)
[4]; incubated in 100 mM sodium chloride solution
  MIC in 100 mM NaCl: 0.057 µM (≈ 0.251 µg/mL)
[4]; incubated in 200 mM sodium chloride solution
  MIC in 200 mM NaCl: 0.057 µM (≈ 0.251 µg/mL)
[4]; incubated in 300 mM sodium chloride solution
  MIC in 300 mM NaCl: 0.057 µM (≈ 0.251 µg/mL)
[4]; incubated in 400 mM sodium chloride solution
  MIC in 400 mM NaCl: 0.114 µM (≈ 0.502 µg/mL)
[5]; pepsin (pH 2.0)
  MIC after Pepsin: 0.057 µM (≈ 0.251 µg/mL)
[5]; proteinase K (pH 7.0)
  MIC after Proteinase K: 0.114 µM (≈ 0.502 µg/mL)
[5]; trypsin (pH 8.0)
  MIC after Trypsin: 0.057 µM (≈ 0.251 µg/mL)
[6]; pH 2, 37 °C for 4 h
  MIC after incubation at pH2: 0.057 μM
[6]; pH 4, 37 °C for 4 h
  MIC after incubation at pH4: 0.057 μM
[6]; pH 6, 37 °C for 4 h
  MIC after incubation at pH6: 0.114 μM
[6]; pH 8, 37 °C for 4 h
  MIC after incubation at pH8: 0.057 μM
[6]; pH 10, 37 °C for 4 h
  MIC after incubation at pH10: 0.057 μM
[7]
  incubation time after which regrowth occurred: 8 h
[8]
  hemolytic activity: little or no hemolytic activity

## Plectasin
[9]
  hemolysis: no hemolysis

## CN[C@H](CC(C)C)C(=O)N[C@H]1C(=O)N[C@@H](CC(N)=O)C(=O)N[C@H]2C(=O)N[C@H]3C(=O)N[C@H](C(=O)N[C@H](C(=O)O)c4cc(O)cc(O)c4-c4cc3ccc4O)[C@H](O)c3ccc(c(Cl)c3)Oc3cc2cc(c3O[C@@H]2O[C@H](CO)[C@@H](O)[C@H](O)[C@H]2O[C@H]2C[C@](C)(N)[C@H](O)[C@H](C)O2)Oc2ccc(cc2Cl)[C@H]1O [vancomycin]
[1]; 2× MIC
  PAE: 1.72 ± 0.11 h
[2]; Staphylococcus aureus, ATCC43300, read-out: MICa (MIC of drug alone)
  MIC: 0.714 µM
[2]; in combination with H1
  MICc (MIC of the most effective combination): 0.714 µM
  FIC: 1
[2]; in combination with H2
  MICc (MIC of the most effective combination): 0.714 µM
  FIC: 1
[2]; in combination with H3
  MICc (MIC of the most effective combination): 0.714 µM
  FIC: 1
[10]
  MIC: 0.172^b μM
[11]
  MIC: 0.172^b μM
[12]
  MIC: 0.172^b μM
[13]
  MIC: 1.43 µM (≈ 2.07 µg/mL)
[14]
  MIC: 0.172 µM (≈ 0.249 µg/mL)
[15]
  MIC: 0.714 µM (≈ 1.03 µg/mL)
